# Experimental data published in patent US20010018956A1, “Multi-component system for modifying, degrading or bleaching lignin, lignin-containing materials or similar substances and processes for its use” (CONSORTIUM FUR ELEKTROCHEMISCHE INDUSTRIE GmbH, priority 1996, published 2001).
# Experiment: Enzymatic bleaching of softwood sulfate pulp with laccase and mediator; kappa number determined after NaOH extraction
# Settings: laccase from Trametes versicolor 15 U/g of pulp; incubation time 2 hours; pH 4.5; 45° C.; oxygen pressure 1-10 bar; mediator dosage per 5 g of pulp as in table
# Procedure: 5 g of bone-dry pulp (softwood O2 delignified), pulp consistency 30% (about 17 g moist) are added to the following solutions:
# A) 56.5 mg of N-hydroxyacetanilide are added to 20 ml of tap water, while stirring, and the pH is adjusted with 0.5 mol/l of H2SO4 solution such that pH 4.5 results after addition of the pulp and the enzyme.
# B) An amount of laccase from Trametes versicolor is added to 5 ml of tap water such that an activity of 15 U (1 U=conversion of 1 μmol of ABTS/minute/ml of enzyme) per g of pulp results.
# Solutions A and B are brought together and topped up to 33 ml. After addition of the pulp, the mixture is mixed with a dough kneader for 2 minutes.
# The pulp is then introduced into a reaction bomb preheated to 45° C. and incubated under an increased oxygen pressure of 1-10 bar for 1-4 hours.
# Thereafter, the pulp is washed over a nylon screen (30 gm) and extracted for 1 hour at 60° C. at a pulp consistency of 2% with 8% of NaOH per g of pulp.
# After renewed washing of the pulp, the kappa number is determined.
row,SMILES,Ligin degradation
1,CC(=O)N(O)c1ccc(C#N)cc1 [N-hydroxy-4-cyanoacetanilide],35.6%
2,O=C(Oc1ccccc1)N(O)c1ccccc1 [Phenyl N-hydroxy-N-phenylcarbamate],20.0%
